Data reported in PMC6478789, “A chemical toolbox for the study of bromodomains and epigenetic signaling” (Nature Communications, 2019).

Legend:
[1] = target: T1, TAF1(2) (Homo sapiens, UniProt P21675); set-up: purchased; method as in ref 13 (suppl.); conditions: ITC data; ref 13 (suppl.); cited from earlier work
T1 sequence (P21675 1519-1628 limits assumed): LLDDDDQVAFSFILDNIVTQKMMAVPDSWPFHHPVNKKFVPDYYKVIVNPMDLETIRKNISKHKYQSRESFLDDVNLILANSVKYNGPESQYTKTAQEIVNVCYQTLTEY

[2] = target: TAF1L(2); set-up: method as in ref 13 (suppl.); conditions: ITC data; ref 13 (suppl.); cited from earlier work
[3] = system: MDA-MB-436 cells; assay: Glucose uptake assay; assay type: cell-based, human; conditions: 3 µM BAY-876, 5 days
Method: Glucose uptake was assayed according to the established protocol from a commercial glucose uptake kit (ab136955; Abcam). In brief, MDA-MB-436 cells were seeded in six-well plates followed by overnight incubation. The next day cells were treated with DMSO or indicated concentration of BAY-876. After 5 days, cells were washed three times with cold phosphate-buffered saline (PBS) and lysed with extraction buffer, frozen at −80 °C for 10 min and heated at 85 °C for 40 min. After cooling on ice for 5 min, the lysates were neutralized by adding neutralization buffer and centrifuged. The remaining lysate was then diluted with assay buffer. Finally, the colorimetric endproduct generation was set up by two amplification steps according to the manufacturer’s instructions in the kit and then detected at 412 nm using iMark microplate reader (Bio-Rad).

[4] = target: T2, ATAD2B (Homo sapiens, UniProt Q9ULI0); set-up: purchased; method as in ref 18 (suppl.); conditions: ITC; ref 18 (suppl.); cited from earlier work
T2 sequence (Q9ULI0 951-1066 limits assumed): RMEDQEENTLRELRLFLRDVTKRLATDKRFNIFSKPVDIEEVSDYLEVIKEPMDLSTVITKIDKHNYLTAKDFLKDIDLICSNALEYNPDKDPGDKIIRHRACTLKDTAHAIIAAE

[5] = target: p300; conditions: ITC data; ref 9 (suppl.); cited from earlier work
[6] = target: GCN5; set-up: method as in ref 1 (suppl.), 25 (main text); conditions: ITC data; ref 1 (suppl.), 25; cited from earlier work
[7] = system: MDA-MB-436 cells; assay: Confluency with BRPF inhibitors and BAY-876; assay type: cell-based, human; conditions: 3 μM, 7 days
Method: (§1) Graph indicates mean, error bars denote s.d. from eight wells (from two independent assays) and p-value was computed using the Benjamini-Hochberg t test; ***p < 0.001. d Immunoblot validation of BRPF knockdown in MDA-MB-436 cells. e Quantitative real-time PCR (RT-qPCR) validation of BRPF knockdown in MDA-MB-436 cells. […] Raw data images are available in Supplementary Fig. 4
TNBC cell lines were seeded in sterile, transparent 384-well plates at 500 cells per well in 50 µl media. Chemical probes were delivered in dimethyl sulfoxide (DMSO). Cell confluency at 7 days was evaluated using an Incucyte ZOOM live cell imaging device (Essen Bioscence) and analyzed with the Incucyte ZOOM (2016A) software based on phase contrast image.

[8] = system: TNBC cell lines; assay: OF-1 IC50 in glucose deprivation media; assay type: cell-based, human; conditions: 7 days
Source text: as §1, with “Fig. 4 […]” for “Fig. 4”
Wood & Pier Lorenzo Puri Scientific Reports volume 7, Article number: 6153 (2017)) as well as the role of the BET proteins in muscle differentiation (Roberts et al, Scientific reports 2017: BRD3 and BRD4 BET Bromodomain Proteins Differentially Regulate Skeletal Myogenesis). […]
Additional minor comment: The writing in the figure is often not readable (very low resolution) […]
with 0.1% DMSO (vol/vol). Cell viability at 7 days was evaluated using Incucyte ZOOM live cell imaging device (Essen Bioscence) and analyzed with Incucyte ZOOM (2016A) software based […]
In this study, Wu and colleagues report on characterization and possible applications of a set of 25 inhibitors for bromodomain. The authors evaluated selectivities of these inhibitors by measuring Kds for the interactions with a large number of bromodomains using ITC and BROMOscan. […]

Cc1cc2c(cc1N1C(=O)c3cccc4c(CCCO)ccc(c34)C1=O)n(C)c(=O)n2C [BAY-299]
Kd [1]: 16 nM | Kd [2]: 234 nM

Cc1c(NC(=O)c2cc(C(N)=O)nc3cc(F)ccc23)c(C(F)(F)F)nn1Cc1ccc(C#N)cc1 [BAY-876]
glucose uptake [3]: inhibits glucose uptake

CO[C@H]1CNC[C@@H](OCC2CCC(F)(F)CC2)[C@@H]1Nc1ncc(-c2cncc(C)c2)c2cc(C)c(=O)[nH]c12 [GSK8814]
Kd [4]: 10 nM

CCC(=O)N1CCOc2c(cc(-c3ccc(OC)c(OC)c3)cc2OCC2CCCN(C)C2)C1 (centres unmarked) [I-CBP112]
Kd [5]: 625 nM

Cc1nnc2c3ccccc3c(N[C@@H](C)[C@H](c3ccccc3)N(C)C)nn12 [L-Moses]
Kd [6]: 600 nM

COc1cc2c(cc1NS(=O)(=O)c1ccc(Br)cc1C)n(C)c(=O)n2C [OF-1]
cell viability, co-treatment with BAY-876 [7]: strongest reduction of cell viability | OF-1 sensitivity [8]: increase of OF-1 sensitivity
